Laboratory results: patent US12174192B2, “Methods for detecting and treating cancers having adenosine pathway activation” (Corvus Pharmaceuticals, Inc., priority 2018, dated 2024)
“Also recorded” adds a separate entry of the source.

Key:
Assay type in all cases: cell-based
[1] = tested on: human peripheral blood mononuclear cells (PBMCs); experiment: RNA sequencing (RNA-Seq) of NECA-treated, anti-CD3/CD28-activated PBMCs
Procedure: RNA purified from normal, healthy human peripheral blood mononuclear cells (PBMCs) treated with 5′-N-ethylcarboxamidoadenosine (NECA) and activated with anti-CD3/CD28 antibody were analyzed by NanoString hybridization-based quantification (NanoString Technologies, Inc.). […] Each dot represents the expression level of a specific gene. Dot shade represents the concentration of NECA used and/or different PBMC donors. […] Data were confirmed by RNA sequencing (RNA-Seq).

PBMCs = experiment: CXCL5 protein ELISA in culture supernatants of PBMCs treated with NECA +/- CPI-444; details: PBMCs from two human donors; two days after anti-CD3/CD28 activation; DMSO vehicle control
Procedure: Expression of CXCL5 was determined by ELISA 2 days after activation.
FIGS. 2B and 2C show the response of PBMCs from two different donors to NECA+/−CPI-444 treatment. DMSO was used as vehicle control. […] This control helps establish that the induction of CXCL5 is specific to signaling through adenosine receptors.
NECA activation of CXCL5 protein expression was evaluated. PBMCs were harvested from two different human donors. […] CPI-444 (Corvus Pharmaceuticals) is an antagonist of the adenosine A2A receptor. CXCL5 protein in the culture supernatants was evaluated by ELISA two days after activation. CXCL5 expression is activated by NECA. […] This establishes that the induction of CXCL5 is specific to signaling through adenosine receptors.

[2] = tested on: human peripheral blood mononuclear cells (PBMCs); experiment: NanoString mRNA quantification in NECA-treated, anti-CD3/CD28-activated PBMCs; details: 0.1 μM, 1 μM, and/or 10 μM NECA vs vehicle-treated control
Procedure: RNA purified from normal, healthy human peripheral blood mononuclear cells (PBMCs) treated with 5′-N-ethylcarboxamidoadenosine (NECA) and activated with anti-CD3/CD28 antibody were analyzed by NanoString hybridization-based quantification (NanoString Technologies, Inc.). […] Each dot represents the expression level of a specific gene. Dot shade represents the concentration of NECA used and/or different PBMC donors.

Structure (SMILES): CCNC(=O)[C@H]1O[C@@H](n2cnc3c(N)ncnc32)[C@H](O)[C@@H]1O [NECA, 5′-N-ethylcarboxamidoadenosine]
- logFC CCL24 expression ([1]; Control (DMSO) vs 0.1 μm NECA): −1.068
- logFC CD93 expression ([1]; Control (DMSO) vs 0.1 μm NECA): 0.9975
- logFC CSF3 expression ([1]; Control (DMSO) vs 0.1 μm NECA): 1.603
- logFC CXCL2 expression ([1]; Control (DMSO) vs 0.1 μm NECA): 1.452
- logFC CXCL3 expression ([1]; Control (DMSO) vs 0.1 μm NECA): 1.694
- logFC CXCL5 expression ([1]; Control (DMSO) vs 0.1 μm NECA): 2.388
- logFC EHF expression ([1]; Control (DMSO) vs 0.1 μm NECA): −0.2753
- logFC EML6 expression ([1]; Control (DMSO) vs 0.1 μm NECA): 0.2117
- logFC EPB41L3 expression ([1]; Control (DMSO) vs 0.1 μm NECA): 1.183
- logFC FUT7 expression ([1]; Control (DMSO) vs 0.1 μm NECA): −0.2135
- logFC HAS1 expression ([1]; Control (DMSO) vs 0.1 μm NECA): 2.059
- logFC IL23A expression ([1]; Control (DMSO) vs 0.1 μm NECA): 0.7971
- logFC INHBA expression ([1]; Control (DMSO) vs 0.1 μm NECA): 0.5196
- logFC KLC4 expression ([1]; Control (DMSO) vs 0.1 μm NECA): 0.216
- logFC LAYN expression ([1]; Control (DMSO) vs 0.1 μm NECA): 0.4228
- logFC MRPL11 expression ([1]; Control (DMSO) vs 0.1 μm NECA): −0.19
- logFC MS4A7 expression ([1]; Control (DMSO) vs 0.1 μm NECA): 0.9319
- logFC NPR1 expression ([1]; Control (DMSO) vs 0.1 μm NECA): 0.7892
- logFC OST4 expression ([1]; Control (DMSO) vs 0.1 μm NECA): −0.2352
- logFC PADI2 expression ([1]; Control (DMSO) vs 0.1 μm NECA): 0.4802
- logFC PTGS2 expression ([1]; Control (DMSO) vs 0.1 μm NECA): 1.184
- logFC SLC7A7 expression ([1]; Control (DMSO) vs 0.1 μm NECA): 0.5935
- logFC SPON1 expression ([1]; Control (DMSO) vs 0.1 μm NECA): 0.3611
- logFC ST6GALNAC2 expression ([1]; Control (DMSO) vs 0.1 μm NECA): 0.5342
- logFC SYTL3 expression ([1]; Control (DMSO) vs 0.1 μm NECA): 0.2894
- logFC WDR83OS expression ([1]; Control (DMSO) vs 0.1 μm NECA): −0.2872
- logFC ZBTB18 expression ([1]; Control (DMSO) vs 0.1 μm NECA): 0.2431
- logFC CCDC60 expression ([1]; Control (DMSO) vs 1 μm NECA): 0.07658
- logFC CD93 expression ([1]; Control (DMSO) vs 1 μm NECA): 1.454
- logFC CSF3 expression ([1]; Control (DMSO) vs 1 μm NECA): 2.802
- logFC CXCL2 expression ([1]; Control (DMSO) vs 1 μm NECA): 2.361
- logFC CXCL3 expression ([1]; Control (DMSO) vs 1 μm NECA): 2.573
- logFC CXCL5 expression ([1]; Control (DMSO) vs 1 μm NECA): 3.451
- logFC EHF expression ([1]; Control (DMSO) vs 1 μm NECA): −0.2522
- logFC EMR3 expression ([1]; Control (DMSO) vs 1 μm NECA): 1.364
- logFC EPB41L3 expression ([1]; Control (DMSO) vs 1 μm NECA): 1.854
- logFC EREG expression ([1]; Control (DMSO) vs 1 μm NECA): 1.89
- logFC FUT7 expression ([1]; Control (DMSO) vs 1 μm NECA): −0.4158
- logFC GPR157 expression ([1]; Control (DMSO) vs 1 μm NECA): 0.9283
- logFC HAS1 expression ([1]; Control (DMSO) vs 1 μm NECA): 3.238
- logFC IL23A expression ([1]; Control (DMSO) vs 1 μm NECA): 1.363
- logFC IL24 expression ([1]; Control (DMSO) vs 1 μm NECA): 2.876
- logFC INHBA expression ([1]; Control (DMSO) vs 1 μm NECA): 0.9638
- logFC LAYN expression ([1]; Control (DMSO) vs 1 μm NECA): 0.5277
- logFC MS4A7 expression ([1]; Control (DMSO) vs 1 μm NECA): 1.535
- logFC OST4 expression ([1]; Control (DMSO) vs 1 μm NECA): −0.1747
- logFC PADI2 expression ([1]; Control (DMSO) vs 1 μm NECA): 0.7173
- logFC PID1 expression ([1]; Control (DMSO) vs 1 μm NECA): 1.729
- logFC PTGS2 expression ([1]; Control (DMSO) vs 1 μm NECA): 2.23
- logFC SLC7A7 expression ([1]; Control (DMSO) vs 1 μm NECA): 0.9514
- logFC SPON1 expression ([1]; Control (DMSO) vs 1 μm NECA): 0.5667
- logFC ST6GALNAC2 expression ([1]; Control (DMSO) vs 1 μm NECA): 0.8306
- logFC TGIF1 expression ([1]; Control (DMSO) vs 1 μm NECA): 0.4769
- logFC ZBTB18 expression ([1]; Control (DMSO) vs 1 μm NECA): 0.3385
- logFC CCNE1 expression ([1]; Control (DMSO) vs 10 μm NECA): −0.4518
- logFC CD93 expression ([1]; Control (DMSO) vs 10 μm NECA): 1.895
- logFC CD300E expression ([1]; Control (DMSO) vs 10 μm NECA): 1.71
- logFC CSF3 expression ([1]; Control (DMSO) vs 10 μm NECA): 3.508
- logFC CXCL2 expression ([1]; Control (DMSO) vs 10 μm NECA): 3.011
- logFC CXCL3 expression ([1]; Control (DMSO) vs 10 μm NECA): 3.106
- logFC CXCL5 expression ([1]; Control (DMSO) vs 10 μm NECA): 3.354
- logFC DFNA5 expression ([1]; Control (DMSO) vs 10 μm NECA): 0.6559
- logFC ECEL1 expression ([1]; Control (DMSO) vs 10 μm NECA): 0.6918
- logFC EPB41L3 expression ([1]; Control (DMSO) vs 10 μm NECA): 2
- logFC GALM expression ([1]; Control (DMSO) vs 10 μm NECA): −0.3189
- logFC GBP6 expression ([1]; Control (DMSO) vs 10 μm NECA): −0.8039
- logFC GPR157 expression ([1]; Control (DMSO) vs 10 μm NECA): 1.139
- logFC HAS1 expression ([1]; Control (DMSO) vs 10 μm NECA): 3.807
- logFC IL5 expression ([1]; Control (DMSO) vs 10 μm NECA): −0.6885
- logFC IL23A expression ([1]; Control (DMSO) vs 10 μm NECA): 1.332
- logFC INHBA expression ([1]; Control (DMSO) vs 10 μm NECA): 1.192
- logFC LAP3 expression ([1]; Control (DMSO) vs 10 μm NECA): −0.4286
- logFC LOC100505585 expression ([1]; Control (DMSO) vs 10 μm NECA): 0.6639
- logFC NID1 expression ([1]; Control (DMSO) vs 10 μm NECA): 1.087
- logFC PADI2 expression ([1]; Control (DMSO) vs 10 μm NECA): 0.9386
- logFC PID1 expression ([1]; Control (DMSO) vs 10 μm NECA): 2.124
- logFC PTGS2 expression ([1]; Control (DMSO) vs 10 μm NECA): 2.349
- logFC RHCG expression ([1]; Control (DMSO) vs 10 μm NECA): 0.5767
- logFC SLC7A7 expression ([1]; Control (DMSO) vs 10 μm NECA): 0.9134
- logFC SPON1 expression ([1]; Control (DMSO) vs 10 μm NECA): 0.568
- logFC ST6GALNAC2 expression ([1]; Control (DMSO) vs 10 μm NECA): 0.876
- CXCL5 protein in culture supernatants (ELISA), effect of NECA (PBMCs): activated; also recorded: dose-dependent increase in CXCL5
- logFC CD14 expression [2]: 0.4485
- logFC CD86 expression [2]: 0.3148
- logFC CLEC5A expression [2]: 0.3833
- logFC CXCL1 expression [2]: 0.6909
- logFC CXCL2 expression [2]: 1.093
- logFC CXCL3 expression [2]: 1.101
- logFC CXCL5 expression [2]: 1.338
- logFC CXCL6 expression [2]: 0.6535
- logFC IL1A expression [2]: 0.6367
- logFC IL1B expression [2]: 0.6345
- logFC IL6 expression [2]: 0.7014
- logFC IL8 expression [2]: 0.6411
- logFC IL23A expression [2]: 0.4628
- logFC IL24 expression [2]: 0.5768
- logFC PLAUR expression [2]: 0.5031
- logFC PPBP expression [2]: 0.683
- logFC PTGS2 expression [2]: 0.6892
- logFC SLC11A1 expression [2]: 0.7022
- logFC TBX21 expression [2]: −0.1238
- logFC THBS1 expression [2]: 0.8703
